# Patent publication US20210165001A1, “COMPOSITIONS AND METHODS FOR DETECTION AND IMAGING OF AMYLOID FIBRILS, AMYLOID PLAQUES, RNA, AND NUCLEOLI” (The University of Hong Kong, priority 2018, published 2021)
# Legend:
# Type in all cases: biochemical
# [1] = biological target: T1, insulin amyloid fibrillation (Homo sapiens, UniProt P01308); assay: effect of L-ascorbic acid on insulin amyloid fibrillation, thioflavin T fluorescence assay; settings: detected by thioflavin T
# Description: (§1) In kinetics, insulin amyloid fibrillation can be modeled by a sigmoid function with three different phases: lag phase, log phase, and stationary phase. The values of kapp and tlag for insulin amyloid fibrillation were determined using the sigmoid function which was based on the equation shown below (see similar examples of data fitting in Nielsen et al., Biochemistry, 40:6036-6046 (2001); Hwang et al., J. Biol. Chem., 285:41701-41711 (2010); and Donabedian et al., ACS Chem. Neurosci., 6:1526-1535 (2015)).
# (§2) where y is the absorbance, emission intensity, or RLS intensity; A1 is the absorbance, emission intensity, or RLS intensity before amyloid fibrillation; A2 is the absorbance, emission intensity, or RLS intensity after amyloid fibrillation; x is the incubation time; xo is the incubation time at which the absorbance, emission intensity, or RLS intensity is at half maximum; and dx is the time constant. Accordingly, the apparent rate constant, kapp, is equivalent to 1/dx, and the lag time, tlag, is given by xo−2dx.
# (§3) Insulin was dissolved at 1.0 mg mL^−1 in an acidic buffer ([NaCl]=137 mM, [KCl]=2.7 mM, pH=2.0) in the presence of different amounts (0, 10, 20, 50, 70, 100 mM) of L-ascorbic acid. The solution was incubated at 65° C. and stirred at 300 rpm. Aliquots were withdrawn at a desired time interval. Insulin samples (10 μM) with different incubation times were added to a solution of thioflavin T (10 μM) in a PBS buffer (10.0 mM, pH=7.4). The emission spectra were recorded at 25° C. at an excitation wavelength of 440 nm. Similarly, insulin samples (10 μM) with different incubation times were added to a solution of complex 1-Pt (50 μM) in a PBS buffer (10.0 mM, pH=7.4, 10% DMSO). The emission spectra were recorded at 25° C. at an excitation wavelength of 400 nm. The values of kapp and tlag for insulin amyloid fibrillation were determined from fitting using the sigmoid equation listed above.
# [2] = biological target: T1, insulin amyloid fibrillation; assay: effect of L-ascorbic acid on insulin amyloid fibrillation, complex 1-Pt luminescence assay; settings: for kapp of insulin amyloid fibrillation / tlag of insulin amyloid fibrillation: detected by complex 1-Pt
# Description: as §1, §2, §3
# [3] = biological target: T1, insulin amyloid fibrillation; assay: kinetics of insulin amyloid fibrillation reported by probe (sigmoid fit); settings: method: Emission; insulin 10 μM; thioflavin T 10 μM (490 nm) or complex 1-Pt 50 μM (650 nm); no L-ascorbic acid
# Description: To induce amyloid fibrillation, insulin was dissolved at 1.0 mg mL^−1 in an acidic buffer ([NaCl]=137 mM, [KCl]=2.7 mM, pH=2.0). The solution was incubated at 65° C. and stirred at 300 rpm. Insulin samples with different incubation times were added to a solution of thioflavin T in a PBS buffer (10.0 mM, pH=7.4). The final concentrations of insulin and thioflavin T were both 10 μM. The emission spectra were recorded at 25° C. at an excitation wavelength of 440 nm. Similarly, insulin samples with different incubation times were added to a solution of complex 1-Pt in a PBS buffer (10.0 mM, pH=7.4, 10% DMSO). The final concentrations of insulin and complex 1-Pt were 10 μM and 50 μM, respectively. UV-Vis absorption spectra, emission spectra, and RLS spectra were recorded at 25° C.; the emission spectra were recorded at an excitation wavelength of 400 nm.
# as §1, with “(2015)). […]” for “(2015)).”
# T1 sequence (P01308 25-54 limits assumed): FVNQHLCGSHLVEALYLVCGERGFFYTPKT
# T1 sequence (P01308 90-110 limits assumed): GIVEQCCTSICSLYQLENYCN
Structure (SMILES),kapp of insulin amyloid fibrillation ([1]; L-ascorbic acid 10 mM) [min⁻¹],tlag of insulin amyloid fibrillation ([1]; L-ascorbic acid 10 mM) [min],kapp of insulin amyloid fibrillation ([1]; L-ascorbic acid 20 mM) [min⁻¹],tlag of insulin amyloid fibrillation ([1]; L-ascorbic acid 20 mM) [min],kapp of insulin amyloid fibrillation ([1]; L-ascorbic acid 50 mM) [min⁻¹],tlag of insulin amyloid fibrillation ([1]; L-ascorbic acid 50 mM) [min],kapp of insulin amyloid fibrillation ([1]; L-ascorbic acid 70 mM) [min⁻¹],tlag of insulin amyloid fibrillation ([1]; L-ascorbic acid 70 mM) [min],"inhibition effect on amyloid fibrillation ([2]; L-ascorbic acid 0-100 mM, thioflavin T and complex 1-Pt assays)",kapp of insulin amyloid fibrillation ([2]; L-ascorbic acid 10 mM) [min⁻¹],tlag of insulin amyloid fibrillation ([2]; L-ascorbic acid 10 mM) [min],kapp of insulin amyloid fibrillation ([2]; L-ascorbic acid 20 mM) [min⁻¹],tlag of insulin amyloid fibrillation ([2]; L-ascorbic acid 20 mM) [min],kapp of insulin amyloid fibrillation ([2]; L-ascorbic acid 50 mM) [min⁻¹],tlag of insulin amyloid fibrillation ([2]; L-ascorbic acid 50 mM) [min],kapp of insulin amyloid fibrillation ([2]; L-ascorbic acid 70 mM) [min⁻¹],tlag of insulin amyloid fibrillation ([2]; L-ascorbic acid 70 mM) [min],kapp (apparent rate constant of insulin amyloid fibrillation) [3] [min⁻¹],tlag (lag time of insulin amyloid fibrillation) [3] [min]
O=C1O[C@H]([C@@H](O)CO)C(O)=C1O [L-ascorbic acid],0.19 ± 0.09,54.3 ± 0.2,0.17 ± 0.08,57.2 ± 0.3,0.17 ± 0.08,68.3 ± 0.3,0.14 ± 0.07,83.0 ± 0.3,concentration dependent,0.18 ± 0.09,53.2 ± 0.2,0.16 ± 0.08,59.2 ± 0.3,0.15 ± 0.07,70.1 ± 0.6,0.12 ± 0.06,85.6 ± 0.6,,
"Cc1ccc2c(c1)sc(-c1ccc(N(C)C)cc1)[n+]2C.[Cl-] [Thioflavin T, thioflavin T]",,,,,,,,,,,,,,,,,,0.23 ± 0.08,54.0 ± 0.1
